In data set [1] the test system is HL-1 cells. In words: Cytotoxicity testing of a stabilized toxin concentration gradient on HL-1 cells in the microfluidic channel. Format: cell-based. As for the experimental part:
HL-1 cells (Cardiac muscle cell line) were cultured with medium containing 87% Claycomb Medium, 10% Fetal Bovine Serum (FBS), 1% Penicillin/Streptomycin, 1% Norepinephrine, and 1% L-Glutamine at 37° C. in a humidified 5% CO2/95% air incubator. To enhance the cell adhesion, the bottom glass slide was coated with a mixture of extracellular matrix (0.02% gelatin (w/w) and 5 μg/mL fibronectin) after the top channel was bonded to the bottom glass slide. To seed the cells into the microfluidic device, the cells were trypsinized and seeded through the outlet port using dynamic seeding at a cell density of 2×10^6 cells mL-1 that allowed uniform cell distribution. Cells were cultured for 2 h to ensure attachment. The medium was then changed and 3 drops of 2 μL medium containing 20 mM Alpha-cypermethrin were introduced by passive pumping and a concentration gradient was established by leaving the microfluidic device in the hood for 5 min to allow for evaporation-induced backflow. The microfluidic device was then transferred to a humidified incubator where the concentration gradient of the toxin was stabilized and the cells were treated for 4 h. […] ImageJ was used to quantify the fluorescence images of live-dead staining of the cells. At least three images were used for quantification of the cell viability. […]

The subject of data set [2] is HL-1 cells. In words: Cytotoxicity testing with HL-1 cells seeded in a 96-well plate. Format: cell-based. The settings on record: HL-1 cells in 96-well plate, various concentrations of toxin. The procedure: In this example, the stabilized, spatially and temporally controllable concentration gradient technique is utilized for cytotoxicity testing. A cardiac muscle cell line (HL-1) is used to investigate the cytotoxicity of Alpha-cypermethrin, a cardiac toxin. Three drops of 2 μL medium containing 20 mM Alpha-cypermethrin were loaded consecutively into the micro-devices with HL-1 cells seeded along the channel. […] The cytotoxicity of the toxin gradient was further tested on the HL-1 cells by conducting a live-dead assay. […] According to the correlation between cell viability and morphology changes with respect to Alpha-cypermethrin concentration obtained from the toxicity testing on HL-1 cells seeded in 96-well plates, the experimental conditions used in this example established a concentration gradient of the toxin from 12.5 mM to 0 mM along the 5 cm-length channel based on the assay conducted in this example.

In the case of `CC1(C)C(C=C(Cl)Cl)C1C(=O)OC(C#N)c1cccc(Oc2ccccc2)c1` (stereo not drawn) [Alpha-cypermethrin], the “cell morphology along the channel” value in the data set with HL-1 cells [1] (HL-1 cells exposed 4 h to toxin gradient (loaded 20 mM; gradient 12.5 mM to 0 mM along 5 cm channel)) is given as “more severe effects observed in the regions containing higher concentrations of toxin”. Moreover, the “cell viability (live-dead assay)” value in the data set on HL-1 cells [1] (HL-1 cells exposed 4 h to toxin gradient along the channel) is “correlation of cell viability was found with the toxin concentration gradient”. In addition, in the data set with HL-1 cells [2], the cell morphology entry is given as “drastic morphological change”.

(Values after patent publication US20110300570A1, “METHOD AND SYSTEM FOR GENERATING SPATIALLY AND TEMPORALLY CONTROLLABLE CONCENTRATION GRADIENTS” (THE BRIGHAM AND WOMEN'S HOSPITAL, INC., priority 2008, published 2011).)
